Measurements taken from patent publication US20230331710A1, “HETEROCYCLIC COMPOUND, PREPARATION METHOD AND USE THEREOF” (SHANGHAI MEIYUE BIOTECH DEVELOPMENT CO. LTD, priority 2020, published 2023).

Target: T1, complement factor B (Homo sapiens, UniProt P00751)
T1 construct: from tissue; host or cells: normal human serum from healthy volunteers
Assay: Complement hemolytic activity assay (lysis of rabbit erythrocytes by normal human serum)
Type: cell-based
Settings: normal human serum in GVB0 buffer with 10 mM Mg-EGTA, 37° C., A415
Experimental: 4. Complement Hemolytic Activity Assay
The hemolysis experiment was carried out by referring to the description in Xuan Yuan et al., Haematologica. […] Prior to the experiment, the optimal concentration of normal human serum (NHS) required to achieve 100% lysis of rabbit erythrocytes (REs) was obtained by titration testing. […] A GVB0 buffer containing 10 mM Mg-EGTA and containing NHS and RE but no test compound was used as a positive control group (100% lysis). A GVB0 buffer containing 10 mM Mg-EGTA and containing inactivated NHS (heated at 56° C. for 30 min or at 65° C. for 5 min) and RE but no test compound was used as a negative control group (0% lysis). The samples were centrifuged at 2000 g for 5 min, and the supernatant was collected. Absorbance at 415 nm (A415) was measured using a microplate reader (Molecular Devices, SpectraMax i3X). IC50 values were calculated from percent hemolysis as a function of test compound concentration by non-linear regression.

T1 sequence (P00751 26-764): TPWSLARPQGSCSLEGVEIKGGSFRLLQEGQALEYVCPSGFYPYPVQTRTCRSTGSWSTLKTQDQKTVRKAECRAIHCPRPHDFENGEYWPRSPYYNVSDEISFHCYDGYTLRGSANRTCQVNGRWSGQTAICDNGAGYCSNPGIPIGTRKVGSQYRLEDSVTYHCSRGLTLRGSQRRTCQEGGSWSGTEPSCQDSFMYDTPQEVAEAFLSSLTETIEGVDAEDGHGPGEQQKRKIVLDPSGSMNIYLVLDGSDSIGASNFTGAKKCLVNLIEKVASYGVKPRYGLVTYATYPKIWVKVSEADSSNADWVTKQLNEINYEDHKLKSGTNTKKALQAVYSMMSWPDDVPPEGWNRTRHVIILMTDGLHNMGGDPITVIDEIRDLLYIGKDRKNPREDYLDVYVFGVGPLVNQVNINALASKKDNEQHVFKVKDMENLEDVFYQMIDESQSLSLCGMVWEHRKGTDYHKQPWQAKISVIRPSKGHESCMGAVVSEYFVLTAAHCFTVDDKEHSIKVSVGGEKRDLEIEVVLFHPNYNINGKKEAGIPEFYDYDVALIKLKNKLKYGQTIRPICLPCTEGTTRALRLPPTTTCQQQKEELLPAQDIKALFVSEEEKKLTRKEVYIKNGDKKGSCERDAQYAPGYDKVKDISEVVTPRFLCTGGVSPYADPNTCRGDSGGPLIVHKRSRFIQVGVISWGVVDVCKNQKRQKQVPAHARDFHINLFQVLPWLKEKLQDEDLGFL

| SMILES | IC50 |
| --- | --- |
| CCO[C@H]1CCN(Cc2c(OC)cc(C)c3[nH]nnc23)[C@H](c2ccc(C(=O)O)cc2)C1 [Example 6] | > 5 µM |
| CCO[C@H]1CCN(Cc2c(OC)cc(C)c3c2CCN3)[C@H](c2ccc(C(=O)O)cc2)C1 [Example 1] | 1.5 µM |
| CCO[C@H]1CCN(Cc2c(OC)cc(C)c3[nH]cnc23)[C@H](c2ccc(C(=O)O)cc2)C1 [Example 4] | 0.9 µM |
| CCO[C@H]1CCN(Cc2c(C)cc(C)c3ccccc23)[C@H](c2ccc(C(=O)O)cc2)C1 [Example 15] | > 5 µM |
| CCO[C@H]1CCN(Cc2c(OC)cc(C)c3occc23)[C@H](c2ccc(C(=O)O)cc2)C1 [Example 10] | 1.3 µM |
| CCO[C@H]1CCN(Cc2c(OC)cc(C(F)(F)F)c3[nH]ccc23)[C@H](c2ccc(C(=O)O)cc2)C1 [Example 11] | > 5 µM |
| CCO[C@H]1CCN(Cc2c(OC)cc(C3CC3)c3[nH]ccc23)[C@H](c2ccc(C(=O)O)cc2)C1 [Example 13] | 1 µM |
| CCO[C@H]1CCN(Cc2c(OC)cc(C)c3[nH]ncc23)[C@H](c2ccc(C(=O)O)cc2)C1 [Example 5] | 1.2 µM |
| CCO[C@H]1CCN(Cc2c(OC)cc(C)c3c2CCC3)[C@H](c2ccc(C(=O)O)cc2)C1 [Example 8] | > 5 µM |
| CCO[C@H]1CCN(Cc2c(OC)cc(C#N)c3[nH]ccc23)[C@H](c2ccc(C(=O)O)cc2)C1 [Example 12] | > 5 µM |
| CCO[C@H]1CCN(Cc2c(OC)cc(C)c3c2CCC(=O)N3)[C@H](c2ccc(C(=O)O)cc2)C1 [Example 16] | > 5 µM |
| CCO[C@H]1CCN(Cc2c(OC)cc(C)c3ccccc23)[C@H](c2ccc(C(=O)O)cc2)C1 [Example 14] | > 5 µM |
